Measured values: US9815854B2, “3-(3H-imidazo[4,5-B]pyridin-2-yl)-1H-pyrazolo[3,4-C]pyridine and therapeutic uses thereof” (Samumed, LLC, priority 2014, dated 2017)

Legend:
[1] = test system: Wnt activity (Sp5-Luc reporter, TCF/LEF binding sites) in SW480 colon carcinoma cells; assay: Sp5-Luc Wnt reporter gene screening assay in SW480 colon carcinoma cells; type: cell-based, human; conditions: Homo sapiens
Source text: The screening assay for Wnt activity is described as follows. Reporter cell lines can be generated by stably transducing cancer cell lines (e.g., colon cancer) or primary cells (e.g., IEC-6 intestinal cells) with a lentiviral construct that includes a Wnt-responsive promoter driving expression of the firefly luciferase gene.
SW480 colon carcinoma cells were transduced with a lentiviral vector expressing luciferase with a human Sp5 promoter consisting of a sequence of eight TCF/LEF binding sites. SW480 cells stably expressing the Sp5-Luc reporter gene and a hygromycin resistance gene were selected by treatment with 150 μg/ml of hygroinycin for 7 days. These stably transduced SW480 cells were expanded in cell culture and used for all further screening activities. For Sp5-Luc reporter gene assays, the cells were plated at 10,000 cells/well in 96-well plates with growth medium containing 10% fetal calf serum and incubated overnight at 37° C. and 5% CO2. Each compound was dissolved in DMSO as a 10 mM stock in standard j-vials and used to prepare compound source plates in dose-response format with 3-fold serial dilutions and a 10 mM top concentration. Compound transfer from serially diluted source plates to assay plates containing the cells was accomplished using a pintool (Multimek 96, Beckman equipped with V&P Scientific FP1S50H pins) based liquid handling protocol. This protocol used a slotted pin to transfer 50 nl of compound from a source plate well to an assay plate well containing 50 μl of cells in growth medium. […] Control wells received 50 nl of DMSO treatment for nommlization and calculating IC50 values. The treated cells were incubated at 37° C. and 5% CO2 for an additional forty-two hours. Following incubation, the growth medium was removed and 50 μl of BrightGlo luminescence reagent (Promega) was added to each well of the 96-well assay plates. The plates were placed on an orbital shaker for 5 min and then luminescence was quantified on the Victor3 (Perkin Elmer) plate reader. Readings were normalized to DMSO only treated cells, and normalized activities were utilized for IC50 calculations using the dose-response log (inhibitor) vs. response—variable slope (four parameters) nonlinear regression feature available in GraphPad Prism 5.0 or 6.0.

[2] = test system: primary human fibroblasts derived from IPF patients (LL29 cells); assay: Inhibition of the fibrotic process in TGF-β1-treated primary human fibroblasts from IPF patients (αSMA staining); type: cell-based; conditions: Fibroblast, 96 h, TGF-β1 20 ng/mL, 4 days, read-out: Inhibition of fibrosis EC50
Source text: The above synthesized compounds were screened using primary human fibroblasts (derived from IPF patients) treated with TGF-β1 to determine their ability to inhibit the fibrotic process.
Human Fibroblast Celt Culture: Primary human fibroblasts derived from IPF patients (LL29 cells) [^1Xiaoqiu Liu, et.al., “Fibrotic Luna Fibroblasts Show Blunted Inhibition by cAMP Due to Deficient cAMP Response Element-Binding Protein Phosphorylation”, Journal of Pharmacology and Experimental Therapeutics (2005), 315(2), 678-687; ^2Watts, K. L., et.al., “RhoA signaling modulates cyclin D1 expression in human lung fibroblasts; implications for idiopathic pulmonary fibrosis”, Respiratory Research (2006), 7(1), 88] were obtained from American Type Culture Collection (ATCC) and expanded in F12 medium supplemented with 15% Fetal Bovine Serum and Penicillin/Streptomycin.
Compound Screening: Each compound was dissolved in DMSO as a 10 mM stock and used to prepare compound source plates. Serial dilution (1:2, 11-point dose-response curves from 10 μM to […]) and compound transfer was performed using the ECHO 550 (Lahcyte, Sunnyvale, Calif.) into 384-well clear bottom assay plates (Greiner Bio-One) with appropriate DMSO backfill fhr a final DMSO concentration of 0.1%. LL29 cells were plated at 1,500 cells/well in 80 μl/well F12 medium supplemented with 1% Fetal Bovine Serum. One hour after addition of the cells. TGF-β1 (Peprotech; 20 ng/mL) was added to the plates to induce fibrosis (ref. 1 and 2 above), Wells treated with TGF-β1 and containing DMSO were used as controls. Cells were incubated at 37° C. and 5% CO2 for 4 days. Following incubation for 4 days, SYTOX green nucleic acid stain (Life Technologies [Thermo Fisher Scientific]) was added to the wells at a final concentration of 1 uM and incubated at room temperature for 30 min. Cells were then fixed using 4% formaldehyde (Electron Microscopy Sciences), washed 3 times with PBS followed by blocking and penneabilization using 3% Bovine Serum Albumin (BSA; Sigma) and 0.3% Triton X-100 (Sigma) in PBS. Cells were then stained with antibody specific to α-smooth muscle actin (αSMA; Abeam) (ref 1 and 2 above) in 3% Bovine Serum Albumin (BSA; Sigma) and 0.3% Triton X-100 (Sigma) in PBS, and incubated overnight at 4° C. Cells were then washed 3 times with PBS, followed by incubation with Alexa Flor-647 conjugated secondary antibody (Life Technologies [Thermo Fisher Scientific]) and DAPI at room temperature for 1 hour, Cells were then washed 3 times with PBS and plates were sealed for imaging. αSMA staining was imaged by excitation at 630 nm and emission at 665 nm and quantified using the Compartmental Analysis program on the CellInsight CX5 (Thermo Scientific). Dead or apoptotic cells were excluded from analysis based on positive SYTOX green staining. % of total cells positive for αSMA were counted in each well and normalized to the average of 11 wells treated with TGF-β1 on the same plate using Dotmatics' Studies Software. The normalized averages (fold change over untreated) of 3 replicate wells for each compound concentration were used to create dose-responses curves and EC50 values were calculated using non-linear regression curve fit in the Dotmatics' Studies Software. The EC50 values are reported.

| Structure (SMILES) | IC50 [1] [µM] | EC50 [2] [µM] |
| --- | --- | --- |
| CN(C)Cc1cncc(-c2cc3c(-c4nc5c(-c6cccc(F)c6)ccnc5[nH]4)n[nH]c3cn2)c1 [Compound 13, 1-(5-(3-(7-(3-Fluorophenyl)-3H-imidazo[4,5-b]pyridin-2-yl)-1H-pyrazolo[3,4-c]pyridin-5-yl)pyridin-3-yl)-N,N-dimethylmethanamine] | 0.29 | 0.745 |
| CCCC(=O)Nc1cncc(-c2cc3c(-c4nc5c(-c6cccc(F)c6)ccnc5[nH]4)n[nH]c3cn2)c1 [Compound 17, N-(5-(3-(7-(3-Fluorophenyl)-3H-imidazo[4,5-b]pyridin-2-yl)-1H-pyrazolo[3,4-c]pyridin-5-yl)pyridin-3-yl)butyramide] | 0.0597 | ≤ 0.009 |
| O=C(Nc1cncc(-c2cc3c(-c4nc5c(-c6cccc(F)c6)ccnc5[nH]4)n[nH]c3cn2)c1)C1CC1 [Compound 19, N -(5-(3-(7-(3-Fluorophenyl)-3H-imidazo[4,5-b]pyridin-2-yl)-1H-pyrazolo[3,4-c]pyridin-5-yl)pyridin-3-yl)cyclopropanecarboxamide] | 0.0465 | 0.301 |
| Fc1ccc(-c2ccnc3[nH]c(-c4n[nH]c5cnc(-c6cncc(CN7CCCC7)c6)cc45)nc23)cc1 [Compound 40, 3-(7-(4-Fluorophenyl)-3H-imidazo[4,5-b]pyridin-2-yl)-5-(5-(pyrrolidn-1-ylmethyl)pyridin-3-yl)-1H-pyrazolo[3,4-c]pyridine] | 0.321 | 0.348 |
| CCCC(=O)Nc1cncc(-c2cc3c(-c4nc5c(-c6ccc(F)cc6)ccnc5[nH]4)n[nH]c3cn2)c1 [Compound 43, N-(5-(3-(7-(4-Fluorophenyl)-3H-imidazo[4,5-b]pyridin-2-yl)-1H-pyrazolo[3,4-c]pyridin-5-yl)pyridin-3-yl)butyramide] | 0.0212 | 0.069 |
| O=C(Nc1cncc(-c2cc3c(-c4nc5c(-c6ccc(F)cc6)ccnc5[nH]4)n[nH]c3cn2)c1)C1CCC1 [Compound 46, N-(5-(3-(7-(4-Fluorophenyl)-3H-imidazo[4,5-b]pyridin-2-yl)-1H-pyrazolo[3,4-c]pyridin-5-yl)pyridin-3-yl)cyclobutanecarboxamide] | 0.0508 | 0.24 |
| Fc1ccc(-c2ccnc3[nH]c(-c4n[nH]c5cnc(-c6cncnc6)cc45)nc23)cc1 [Compound 52, 3-(7-(4-Fluorophenyl)-3H-imidazo[4,5-b]pyridin-2-yl)-5-(pyrimidin-5-yl)-1H-pyrazolo[3,4-c]pyridine] | 0.0653 | 0.259 |
| Nc1cncc(-c2cc3c(-c4nc5c(-c6ccccc6F)ccnc5[nH]4)n[nH]c3cn2)c1 [Compound 55, 5-(3-(7-(2-Fluorophenyl)-3H-imidazo[4,5-b]pyridin-2-yl)-1H-pyrazolo[3,4-c]pyridin-5-yl)pyridin-3-amine] | 0.0268 | 0.02 |
| CC(C)(C)C(=O)Nc1cncc(-c2cc3c(-c4nc5c(-c6ccccc6F)ccnc5[nH]4)n[nH]c3cn2)c1 [Compound 60] | 0.0455 | ≤ 0.009 |
| CCCC(=O)Nc1cncc(-c2cc3c(-c4nc5c(-c6ccccc6F)ccnc5[nH]4)n[nH]c3cn2)c1 [Compound 69, N-(5-(3-(7-(2-Fluorophenyl)-3H-imidazo[4,5-b]pyridin-2-yl)-1H-pyrazolo[3,4-c]pyridin-5-yl)pyridin-3-yl)butyramide] | 0.128 | 0.21 |
| O=C(Nc1cncc(-c2cc3c(-c4nc5c(-c6ccccc6F)ccnc5[nH]4)n[nH]c3cn2)c1)C1CCCC1 [Compound 73, N-(5-(3-(7-(2-Fluorophenyl)-3H-imidazo[4,5-b]pyridin-2-yl)-1H-pyrazolo[3,4-c]pyridin-5-yl)pyridin-3-yl)cyclopentanecarboxamide] | 0.0369 | 0.324 |
| c1cncc(-c2cc3c(-c4nc5c(-c6cccnc6)ccnc5[nH]4)n[nH]c3cn2)c1 [Compound 82, 5-(Pyridin-3-7-(pyridin-3-yl)-3H-imidazo[4,5-b]pyridin-2-yl)-1H-pyrazolo[3,4-c]pyridine] | > 10 | ≤ 0.009 |
| CC(C)C(=O)Nc1cncc(-c2cc3c(-c4nc5c(-c6cccnc6)ccnc5[nH]4)n[nH]c3cn2)c1 [Compound 87, N-(5-(3-(7-(Pyridin-3-yl)-3 H-imidazo[4,5-b]pyridin-2-yl)-1H-pyrazolo[3,4-c]pyridin-5-yl)pyridin-3-yl)isobutyramide] | > 10 | ≥ 9.99 |
| CC(C)Nc1cncc(-c2cc3c(-c4nc5c(-c6cccnc6)ccnc5[nH]4)n[nH]c3cn2)c1 [Compound 90, N-Isopropyl-5-(3-(7-(pyridin-3-yl)-3H-imidazo[4,5-b]pyridin-2-yl)-1H-pyrazolo[3,4-c]pyridin-5-yl)pyridin-3-amine] | > 10 | ≥ 9.99 |
| c1ccc(CNCc2cncc(-c3cc4c(-c5nc6c(-c7cccnc7)ccnc6[nH]5)n[nH]c4cn3)c2)cc1 [Compound 101] | > 10 | ≤ 0.009 |
| CCNCc1cncc(-c2cc3c(-c4nc5c(-c6ccccn6)ccnc5[nH]4)n[nH]c3cn2)c1 [Compound 136, N-((5-(3-(7-(Pyridin-2-yl)-3H-imidazo[4,5-b]pyridin-2-yl)-1H-pyrazolo[3,4-c]pyridin-5-yl)pyridin-3-yl)methyl)ethanamine] | 0.745 | ≤ 0.009 |
| O=C(Nc1cncc(-c2cc3c(-c4nc5c(-c6ccccn6)ccnc5[nH]4)n[nH]c3cn2)c1)c1ccccc1 [Compound 141, N-(5-(3-(7-(Pyridin-2-yl)-3H-imidazo[4,5-b]pyridin-2-yl)-1H-pyrazolo[3,4-c]pyridin-5-yl)pyridin-3-yl)benzamide] | > 10 | ≥ 9.99 |
| CCCCC(=O)Nc1cncc(-c2cc3c(-c4nc5c(-c6ccccn6)ccnc5[nH]4)n[nH]c3cn2)c1 [Compound 148, N-(5-(3-(7-(Pyridin-2-yl)-3H-imidazo[4,5-b]pyridin-2-yl)-1H-pyrazolo[3,4-c]pyridin-5-yl)pyridin-3-yl)pentanamide] | > 10 | ≤ 0.009 |
| c1ccc(-c2ccnc3[nH]c(-c4n[nH]c5cnc(-c6cncc(CNCC7CCCC7)c6)cc45)nc23)nc1 [Compound 154, 1-Cyclopentyl-N-((5-(3-(7-(pyridin-2-yl)-3H-imidazo[4,5-b]pyridin-2-yl)-1H-pyrazolo[3,4-c]pyridin-5-yl)pyridin-3-yl)methyl)methanamine] | 0.464 | 0.596 |
| CCC(=O)Nc1cncc(-c2cc3c(-c4nc5c(N6CCCCC6)ccnc5[nH]4)n[nH]c3cn2)c1 [Compound 157] | > 10 | ≥ 9.99 |
